In publication PMC6136390, “Coptisine-induced inhibition of Helicobacter pylori: elucidation of specific mechanisms by probing urease active site and its maturation process” (Journal of Enzyme Inhibition and Medicinal Chemistry, 2018):
Values after ≈ are worked out from the molar mass of the structure shown. Where two headings read alike, the source gives them in different places.

Legend:
H. pylori strains = assay: Minimal inhibitory concentration assay (agar dilution); type: cell-based, Helicobacter pylori; conditions: Helicobacter pylori, NCTC11637; standard strain NCTC 11637, pH 7.2; read-out: MIC
From the text: Fourteen H. pylori strains were used in this study. NCTC 11637 and NCTC 26695 strains were purchased from American Type Culture Collection. Sydney Strain-1 (SS1) was kindly provided by Prof. Richard Ferrero of Monash University, Australia. Clinical isolate ICDC 111001 was provided by Prof. Zhang Jian-zhong of the Chinese Center for Disease Control and Prevention, China. Ten clinical isolates (Hp1868, Hp1869, Hp1870, Hp1871, Hp1872, Hp1873, Hp1874, Hp1875, Hp1876, and Hp1877) were obtained from Renji Hospital, Shanghai Jiaotong University.
(§1) All strains were cultured in Columbia agar base containing 7% sheep blood at 37 °C in a micro-aerophilic environment (5% O2, 10% CO2, and 85% N2). After 3 days, H. pylori was scraped and suspended in phosphate buffered saline (PBS). Turbidimetry was employed to adjust the concentrations of different H. pylori strains (turbidity equivalent to 1.0 McFarland standard). Crude HPU was obtained according to the method described by Matsubara et al.[42]
In this study, different concentrations (12.5, 25, 50, and 100 μg/mL) of berberine, palmatine, epiberberine, jatrorrhizine, and coptisine were used to evaluate antimicrobial activity against the standard H. pylori strain NCTC 11637. The agar dilution method was then used to analyse the antibacterial effects of coptisine against two H. pylori standard strains (SS1 and NCTC 26695) and eleven clinical isolates (ICDC 111001, HP 1868, HP 1869, HP 1870, HP 1871, HP 1872, HP 1873, HP 1874, HP 1875, HP 1876, and HP 1877). In this assay, 100 μL of H. pylori suspension (McFarland = 1.0) was added to the test compound-containing or DMSO-containing (control) Columbia blood agar plate. CLR and MET were used as positive controls in this experiment. Minimum inhibitory concentration (MIC) was defined as the lowest concentration at which no strain growth was observed by visual examination after 3 days. This experiment was repeated twice.

H. pylori cells (SS1) = assay: pH shock experiment in vivo (urea-dependent survival of H. pylori); type: cell-based, Helicobacter pylori; conditions: 30 min; for surviving bacteria, pH =1: 100 mM HCl pH 1, 5 mM urea; for surviving bacteria, pH =7.2: PBS pH 7.2, 5 mM urea; for inhibition at 100 µM: Helicobacter pylori, 0.5 h
Method: H. pylori cells (SS1) were harvested, and the concentration was adjusted to Mc = 4 with saline. Then, bacterial samples were mixed with AHA (positive control, 5 mM) or one of the five alkaloids from Rhizoma Coptidis (coptisine, berberine, jatrorrhizine, epiberberine, and palmatine) in 100 mM HCl (pH = 1) or PBS (pH = 7.2) at 37 °C with or without 5 mM urea. After 30 min of incubation, bacteria were collected by centrifugation at 2000g for 10 min and resuspended in the same volume of PBS. A dilution series (1:1–1:10000) was made from the samples, and the dilutions were plated on solid agar for 5 days to form single colony. Samples from urea-free wells were used as controls. Results are expressed as CFU/mL; the experiment was repeated in triplicate. Inhibition rate was calculated using the following equation: Inhibition rate = (Urea group bacterial mean − X group bacterial mean)/Urea group bacterial mean ×100%, where X represents each experimental group.

jack bean urease (JBU) = target: T1, jack bean urease (JBU) (Canavalia ensiformis, UniProt P07374); assay: Urease inhibition assay in vitro (modified Berthelot method); type: biochemical; conditions: 20 min pre-incubation at 37 °C, 150 mM urea, pH 7.5; read-out: IC50 for JBU
T1 construct: purchased Sigma Aldrich (Steineheim, Germany) type III (catalogue number not given)
T1 sequence (P07374 whole entry, looked up): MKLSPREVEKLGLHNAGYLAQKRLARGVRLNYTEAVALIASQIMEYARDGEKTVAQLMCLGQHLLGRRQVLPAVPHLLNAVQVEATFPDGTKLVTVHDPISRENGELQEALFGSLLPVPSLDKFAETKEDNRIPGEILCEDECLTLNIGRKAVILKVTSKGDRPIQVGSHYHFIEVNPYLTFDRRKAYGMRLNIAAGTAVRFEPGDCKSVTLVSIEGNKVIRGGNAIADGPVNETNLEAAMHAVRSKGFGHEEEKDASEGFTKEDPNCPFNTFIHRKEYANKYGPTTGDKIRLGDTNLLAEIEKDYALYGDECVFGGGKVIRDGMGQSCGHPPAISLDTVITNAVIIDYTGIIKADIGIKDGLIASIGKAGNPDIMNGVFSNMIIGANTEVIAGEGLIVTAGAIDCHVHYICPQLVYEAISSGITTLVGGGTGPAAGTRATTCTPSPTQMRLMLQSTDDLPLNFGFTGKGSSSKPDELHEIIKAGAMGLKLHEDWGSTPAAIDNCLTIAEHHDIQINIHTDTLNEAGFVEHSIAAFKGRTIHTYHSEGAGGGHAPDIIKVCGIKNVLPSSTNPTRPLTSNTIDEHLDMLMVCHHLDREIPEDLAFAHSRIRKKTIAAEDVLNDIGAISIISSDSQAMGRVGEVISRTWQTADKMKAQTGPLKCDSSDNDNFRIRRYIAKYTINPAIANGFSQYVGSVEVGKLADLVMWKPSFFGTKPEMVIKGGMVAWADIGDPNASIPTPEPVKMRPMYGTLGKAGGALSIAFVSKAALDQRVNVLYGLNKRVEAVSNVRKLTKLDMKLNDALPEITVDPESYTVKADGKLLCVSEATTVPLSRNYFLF
Method: (§2) This assay was performed using the modified Berthelot method (phenol-hypochlorite) in 96 well plates. At the beginning of each reaction, different concentrations of urease solution and 150 mM urea as a substrate were mixed in 20 mM HEPES buffer (pH 7.5) at 37 °C. After a 20-min reaction, urease activity was tested by measuring the concentration of ammonia produced by the reaction at 595 nm using the microplate reader (Thermo Fisher Multiskan FC, Instruments, Inc., USA) at ambient temperature. […] One unit (U) of urease activity was defined as the amount of urease required to catalyse 1 μmol urea per min. These experiments were repeated in triplicate.
Coptisine’s ability to inhibit urease activity was determined by measuring amounts of ammonia produced using the modified Berthelot method described above. The assay mixture, which contained 200 μL of enzyme and 200 μL of coptisine solution (0.16–2.51 mM) in 200 μL of 20 mM HEPES buffer (pH 7.5), was incubated for 20 min at 37 °C in 96-well plates. The reaction was then initiated by adding urea solution (150 mM) to determine residual urease activity. AHA was used as a standard urease inhibitor. […] Residual activity (RA %) for each assay was calculated using the following equation: RA % = (activity with inhibitors/activity without inhibitors) × 100%. […]

H. pylori urease (HPU) = target: T2, H. pylori urease (HPU) (Helicobacter pylori, UniProt P69996); assay: as above; type: biochemical; conditions: 20 min pre-incubation at 37 °C, 150 mM urea, pH 7.5; read-out: IC50 for HPU
T2 construct: Crude HPU was obtained according to the method described by Matsubara et al; endogenous in cells; host or cells: cultured Helicobacter pylori (strain not specified)
T2 sequence (P69996 whole entry): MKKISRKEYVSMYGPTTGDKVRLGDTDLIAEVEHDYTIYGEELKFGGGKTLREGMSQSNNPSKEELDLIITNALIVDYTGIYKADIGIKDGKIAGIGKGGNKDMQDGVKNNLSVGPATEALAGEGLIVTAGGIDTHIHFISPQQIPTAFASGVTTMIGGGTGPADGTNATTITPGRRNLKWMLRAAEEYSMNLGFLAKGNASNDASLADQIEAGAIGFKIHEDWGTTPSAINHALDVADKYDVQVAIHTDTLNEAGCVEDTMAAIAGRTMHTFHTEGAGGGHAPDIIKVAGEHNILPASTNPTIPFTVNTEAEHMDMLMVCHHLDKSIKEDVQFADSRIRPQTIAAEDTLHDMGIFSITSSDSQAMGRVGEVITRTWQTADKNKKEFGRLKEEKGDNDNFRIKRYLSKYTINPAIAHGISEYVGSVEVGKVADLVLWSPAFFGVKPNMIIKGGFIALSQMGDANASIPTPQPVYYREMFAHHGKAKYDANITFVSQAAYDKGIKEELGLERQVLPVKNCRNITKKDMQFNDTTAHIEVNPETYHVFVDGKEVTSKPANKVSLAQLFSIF
T2 sequence (P14916 whole entry, further chain): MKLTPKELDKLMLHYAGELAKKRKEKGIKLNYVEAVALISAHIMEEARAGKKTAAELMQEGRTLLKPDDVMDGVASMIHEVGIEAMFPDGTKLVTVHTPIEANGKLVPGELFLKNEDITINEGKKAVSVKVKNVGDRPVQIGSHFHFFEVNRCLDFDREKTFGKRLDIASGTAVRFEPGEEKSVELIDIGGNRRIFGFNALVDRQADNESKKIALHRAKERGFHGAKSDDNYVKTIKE
Method: as §1
as §2, with “These experiments were repeated in triplicate.” left out
Coptisine’s ability to inhibit urease activity was determined by measuring amounts of ammonia produced using the modified Berthelot method described above. […] Residual activity (RA %) for each assay was calculated using the following equation: RA % = (activity with inhibitors/activity without inhibitors) × 100%. […]

urease = system: urease; parameters: method as in PMID 26669678; conditions: cited from earlier work
[1] = 100 μM compound, pH 1, 5 mM urea
[2] = 100 μM compound, pH 7.2, 5 mM urea
[3] = 100 μM compound, pH 1, 5 mM urea, read-out: Inhibition rate, pH =1
[4] = 100 μM compound, pH 7.2, 5 mM urea, read-out: Inhibition rate, pH =7.2

Structure (SMILES)	MIC (H. pylori strains) [µg/mL]	surviving bacteria, pH =1 (H. pylori cells (SS1); 100 μM compound) [CFU/mL]	surviving bacteria, pH =7.2 (H. pylori cells (SS1); 100 μM compound)	Inhibition rate, pH =1 (H. pylori cells (SS1); [1])	Inhibition rate, pH =7.2 (H. pylori cells (SS1); [2])	inhibition at 100 µM (H. pylori cells (SS1); [3]) [%]	inhibition at 100 µM (H. pylori cells (SS1); [4]) [%]	IC50 (jack bean urease (JBU)) [µM]	IC50 (H. pylori urease (HPU)) [µM]	surviving bacteria, pH =1 (H. pylori cells (SS1); 5 mM compound) [CFU/mL]	surviving bacteria, pH =7.2 (H. pylori cells (SS1); 5 mM compound)	Inhibition rate, pH =1 (H. pylori cells (SS1); 5 mM compound, pH 1, 5 mM urea) [%]	Inhibition rate, pH =7.2 (H. pylori cells (SS1); 5 mM compound, pH 7.2, 5 mM urea) [%]	inhibitory activity against urease (urease)
COc1cc2c(cc1OC)-c1cc3ccc(OC)c(OC)c3c[n+]1CC2 [Palmatine]	100	628 ± 110	1.2 ± 0.4 ×10^4 CFU/mL	failed to inhibit	failed to inhibit	0	0							
COc1cc2c(cc1OC)-c1cc3ccc4c(c3c[n+]1CC2)OCO4 [Epiberberine]	100	481 ± 92	1.3 ± 0.3 ×10^4 CFU/mL	failed to inhibit	failed to inhibit	0	0							
CC(=O)NO [Acetohydroxamic acid, reference compound]								20 ± 10	90 ± 10	0 ± 0	1.7 ± 0.4 ×10^4 CFU/mL	100	0	
Cc1ncc([N+](=O)[O-])n1CCO [MET, Metronidazole, reference compound]	0.5 (≈ 2.92 µM)													
CC[C@H]1OC(=O)[C@H](C)[C@@H](O[C@H]2C[C@@](C)(OC)[C@@H](O)[C@H](C)O2)[C@H](C)[C@@H](O[C@@H]2O[C@H](C)C[C@H](N(C)C)[C@H]2O)[C@](C)(OC)C[C@@H](C)C(=O)[C@H](C)[C@@H](O)[C@]1(C)O [CLR, Clarithromycin, reference compound]	0.02 (≈ 0.0267 µM)													
COc1ccc2cc3[n+](cc2c1OC)CCc1cc2c(cc1-3)OCO2 [Berberine]	50	587 ± 103	1.2 ± 0.4 ×10^4 CFU/mL	failed to inhibit	failed to inhibit	0	0							fails to show any inhibitory activity
COc1cc2c(cc1O)CC[n+]1cc3c(OC)c(OC)ccc3cc1-2 [Jatrorrhizine]	100	552 ± 98	1.2 ± 0.3 ×10^4 CFU/mL	failed to inhibit	failed to inhibit	0	0							
